According to patent US11883526B2 (priority 2019, dated 2024):

Tested on: patients with treatment-resistant depression (TRD)
Test: Adverse events (Example 7)
Assay type: in vivo, human
Conditions: for Dissociation, number of participants / Dissociative disorder, % of participants / Dissociative disorder, number of participants / Dizziness, % of participants / Dizziness, number of participants / Dysgeusia, % of participants / Dysgeusia, number of participants / Feeling abnormal, % of participants / Feeling abnormal, number of participants / Headache, % of participants / Headache, number of participants / Hypersomnia, % of participants / Hypersomnia, number of participants / Hypertension, number of participants / Hypoesthesia oral, % of participants / Hypoesthesia oral, number of participants / Insomnia, number of participants / Nasal discomfort, number of participants / Nausea, % of participants / Nausea, number of participants / Oropharyngeal pain, number of participants / Polyuria, number of participants / Sedation, % of participants / Sedation, number of participants / Throat irritation, % of participants / Throat irritation, number of participants / Total with events, % of participants / Total with events, number of participants / Tunnel vision, number of participants / Vertigo, % of participants / Vertigo, number of participants / Vision blurred, number of participants / Dissociation, % of participants / Hypertension, % of participants / Insomnia, % of participants / Nasal discomfort, % of participants / Oropharyngeal pain, % of participants / Polyuria, % of participants / Tunnel vision, % of participants / Vision blurred, % of participants: double-blind
Protocol: Adverse events were monitored throughout the study. Other safety assessments (i.e., laboratory tests, vital signs, physical examination) were performed at pre-specified time points. Vital signs, the Clinician Administered Dissociative States Scale (CADSS; Bremner, “Measurement of dissociative states with the clinician-administered dissociative states scale (CADSS)”, J. Traumatic Stress, 1998, 11(1):125-136), and the 4-item positive symptom subscale from the Brief Psychiatric Rating Scale (BPRS; Overall, “The Brief Psychiatric Rating Scale. Psychological Reports”, 1962, 10:799-812) were assessed pre-dose, at 40 minutes, and 2 hours post-dose.
Safety data were analyzed in Period 1, Period 2, double-blind, and open-label data sets, for all subjects receiving at least 1 dose of study medication.

`CN[C@]1(c2ccccc2Cl)CCCCC1=O` [esketamine, (S)-2-(2-chlorophenyl)-2-(methylamino)cyclohexanone] was tested, and the “participants with adverse events leading to discontinuation of study drug” value (double-blind phase) was 5%, the “Dissociation, number of participants” value (28 mg) was 0 and the “Dissociative disorder, % of participants” value (28 mg) was “(11) %”. For the same compound, the “Dissociative disorder, number of participants” value (shortened to “Dissociative disorder, number”) (28 mg) was 2, the “Dizziness, % of participants” value (28 mg) was “(21) %” and the “Dizziness, number of participants” value (28 mg) was 4. The “Dysgeusia, % of participants” value (28 mg) was “(11) %”, the “Dysgeusia, number of participants” value (28 mg) was 2 and the “Feeling abnormal, % of participants” value (28 mg) was “(11) %”. The “Feeling abnormal, number of participants” value (28 mg) was 2, the “Headache, % of participants” value (28 mg) was “(32) %” and the “Headache, number of participants” value (28 mg) was 6. For the same compound, the “Hypersomnia, % of participants” value (28 mg) was “(11) %”, the “Hypersomnia, number of participants” value (28 mg) was 2 and the “Hypertension, number of participants” value (28 mg) was 0. The “Hypoesthesia oral, % of participants” value (28 mg) was “(5) %”, the “Hypoesthesia oral, number of participants” value (from here on “Hypoesthesia oral, number”) (28 mg) was 1 and the “Insomnia, number of participants” value (28 mg) was 0. The “Nasal discomfort, number of participants” value (28 mg) was 0, the “Nausea, % of participants” value (28 mg) was “(11) %” and the “Nausea, number of participants” value (28 mg) was 2. The “Oropharyngeal pain, number of participants” value (“Oropharyngeal pain, number” for short) (28 mg) was 0, the “Polyuria, number of participants” value (28 mg) was 0 and the “Sedation, % of participants” value (28 mg) was “(5) %”. The “Sedation, number of participants” value (28 mg) was 1, the “Throat irritation, % of participants” value (28 mg) was “(5) %” and the “Throat irritation, number of participants” value (from here on “Throat irritation, number”) (28 mg) was 1. The “Total with events, % of participants” value (28 mg) was “(58) %”, the “Total with events, number of participants” value (“Total with events, number” for short) (28 mg) was 11 and the “Tunnel vision, number of participants” value (28 mg) was 0. The “Vertigo, % of participants” value (28 mg) was “(11) %”, the “Vertigo, number of participants” value (28 mg) was 2 and the “Vision blurred, number of participants” value (28 mg) was 0. For the same compound, the “Dissociation, % of participants” value (56 mg) was “(35) %”, the “Dissociation, number of participants” value (56 mg) was 7 and the “Dissociative disorder, % of participants” value (56 mg) was “(5) %”. For the same compound, the “Dissociative disorder, number” value (56 mg) was 1, the “Dizziness, % of participants” value (56 mg) was “(40) %” and the “Dizziness, number of participants” value (56 mg) was 8. For the same compound, the “Dysgeusia, % of participants” value (56 mg) was “(15) %”, the “Dysgeusia, number of participants” value (56 mg) was 3 and the “Feeling abnormal, % of participants” value (56 mg) was “(5) %”. The “Feeling abnormal, number of participants” value (56 mg) was 1, the “Headache, % of participants” value (56 mg) was “(15) %” and the “Headache, number of participants” value (56 mg) was 3. For the same compound, the “Hypersomnia, number of participants” value (56 mg) was 0, the “Hypertension, % of participants” value (56 mg) was “(10) %” and the “Hypertension, number of participants” value (56 mg) was 2. The “Hypoesthesia oral, % of participants” value (56 mg) was “(20) %”, the “Hypoesthesia oral, number” value (56 mg) was 4 and the “Insomnia, % of participants” value (56 mg) was “(10) %”. For the same compound, the “Insomnia, number of participants” value (56 mg) was 2, the “Nasal discomfort, % of participants” value (56 mg) was “(10) %” and the “Nasal discomfort, number of participants” value (56 mg) was 2. The “Nausea, % of participants” value (56 mg) was “(20) %”, the “Nausea, number of participants” value (56 mg) was 4 and the “Oropharyngeal pain, % of participants” value (56 mg) was “(5) %”. The “Oropharyngeal pain, number” value (56 mg) was 1, the “Polyuria, % of participants” value (56 mg) was “(10) %” and the “Polyuria, number of participants” value (56 mg) was 2. For the same compound, the “Sedation, % of participants” value (56 mg) was “(10) %”, the “Sedation, number of participants” value (56 mg) was 2 and the “Throat irritation, number” value (56 mg) was 0. For the same compound, the “Total with events, % of participants” value (56 mg) was “(80) %”, the “Total with events, number” value (56 mg) was 16 and the “Tunnel vision, number of participants” value (56 mg) was 0. For the same compound, the “Vertigo, % of participants” value (56 mg) was “(5) %”, the “Vertigo, number of participants” value (56 mg) was 1 and the “Vision blurred, number of participants” value (56 mg) was 0. For the same compound, the “Dissociation, % of participants” value (84 mg) was “(24) %”, the “Dissociation, number of participants” value (84 mg) was 4 and the “Dissociative disorder, % of participants” value (84 mg) was “(24) %”. For the same compound, the “Dissociative disorder, number” value (84 mg) was 4, the “Dizziness, % of participants” value (84 mg) was “(47) %” and the “Dizziness, number of participants” value (84 mg) was 8. For the same compound, the “Dysgeusia, % of participants” value (84 mg) was “(29) %”, the “Dysgeusia, number of participants” value (84 mg) was 5 and the “Feeling abnormal, % of participants” value (84 mg) was “(6) %”. For the same compound, the “Feeling abnormal, number of participants” value (84 mg) was 1, the “Headache, % of participants” value (84 mg) was “(18) %” and the “Headache, number of participants” value (84 mg) was 3. For the same compound, the “Hypersomnia, number of participants” value (84 mg) was 0, the “Hypertension, % of participants” value (84 mg) was “(6) %” and the “Hypertension, number of participants” value (84 mg) was 1. For the same compound, the “Hypoesthesia oral, % of participants” value (84 mg) was “(12) %”, the “Hypoesthesia oral, number” value (84 mg) was 2 and the “Insomnia, number of participants” value (84 mg) was 0. The “Nasal discomfort, % of participants” value (84 mg) was “(6) %”, the “Nasal discomfort, number of participants” value (84 mg) was 1 and the “Nausea, % of participants” value (84 mg) was “(24) %”. The “Nausea, number of participants” value (84 mg) was 4, the “Oropharyngeal pain, % of participants” value (84 mg) was “(12) %” and the “Oropharyngeal pain, number” value (84 mg) was 2. For the same compound, the “Polyuria, number of participants” value (84 mg) was 0, the “Sedation, % of participants” value (84 mg) was “(6) %” and the “Sedation, number of participants” value (84 mg) was 1. For the same compound, the “Throat irritation, % of participants” value (84 mg) was “(12) %”, the “Throat irritation, number” value (84 mg) was 2 and the “Total with events, % of participants” value (84 mg) was “(88) %”. For the same compound, the “Total with events, number” value (84 mg) was 15, the “Tunnel vision, % of participants” value (84 mg) was “(12) %” and the “Tunnel vision, number of participants” value (84 mg) was 2. The “Vertigo, % of participants” value (84 mg) was “(6) %”, the “Vertigo, number of participants” value (84 mg) was 1 and the “Vision blurred, % of participants” value (84 mg) was “(12) %”. The “Vision blurred, number of participants” value (84 mg) was 2, the “Dissociation, % of participants” value (esketamine Total) was “(20) %” and the “Dissociation, number of participants” value (esketamine Total) was 11. The “Dissociative disorder, % of participants” value (esketamine Total) was “(13) %”, the “Dissociative disorder, number” value (esketamine Total) was 7 and the “Dizziness, % of participants” value (esketamine Total) was “(36) %”. The “Dizziness, number of participants” value (esketamine Total) was 20, the “Dysgeusia, % of participants” value (esketamine Total) was “(18) %” and the “Dysgeusia, number of participants” value (esketamine Total) was 10. For the same compound, the “Feeling abnormal, % of participants” value (esketamine Total) was “(7) %”, the “Feeling abnormal, number of participants” value (esketamine Total) was 4 and the “Headache, % of participants” value (esketamine Total) was “(21) %”. For the same compound, the “Headache, number of participants” value (esketamine Total) was 12, the “Hypersomnia, % of participants” value (esketamine Total) was “(4) %” and the “Hypersomnia, number of participants” value (esketamine Total) was 2. For the same compound, the “Hypertension, % of participants” value (esketamine Total) was “(5) %”, the “Hypertension, number of participants” value (esketamine Total) was 3 and the “Hypoesthesia oral, % of participants” value (esketamine Total) was “(13) %”. The “Hypoesthesia oral, number” value (esketamine Total) was 7, the “Insomnia, % of participants” value (esketamine Total) was “(4) %” and the “Insomnia, number of participants” value (esketamine Total) was 2. For the same compound, the “Nasal discomfort, % of participants” value (esketamine Total) was “(5) %”, the “Nasal discomfort, number of participants” value (esketamine Total) was 3 and the “Nausea, % of participants” value (esketamine Total) was “(18) %”. For the same compound, the “Nausea, number of participants” value (esketamine Total) was 10, the “Oropharyngeal pain, % of participants” value (esketamine Total) was “(5) %” and the “Oropharyngeal pain, number” value (esketamine Total) was 3. For the same compound, the “Polyuria, % of participants” value (esketamine Total) was “(4) %”, the “Polyuria, number of participants” value (esketamine Total) was 2 and the “Sedation, % of participants” value (esketamine Total) was “(7) %”. For the same compound, the “Sedation, number of participants” value (esketamine Total) was 4, the “Throat irritation, % of participants” value (esketamine Total) was “(5) %” and the “Throat irritation, number” value (esketamine Total) was 3. The “Total with events, % of participants” value (esketamine Total) was “(75) %”, the “Total with events, number” value (esketamine Total) was 42 and the “Tunnel vision, % of participants” value (esketamine Total) was “(4) %”. For the same compound, the “Tunnel vision, number of participants” value (esketamine Total) was 2, the “Vertigo, % of participants” value (esketamine Total) was “(7) %” and the “Vertigo, number of participants” value (esketamine Total) was 4. For the same compound, the “Vision blurred, % of participants” value (esketamine Total) was “(4) %”, the “Vision blurred, number of participants” value (esketamine Total) was 2 and the deaths (in vivo) was “No death”. For the same compound, the “adverse event incidence: dizziness” value (open-label phase) was 38.6%, the “adverse event incidence: dysgeusia” value (open-label phase) was 22.8% and the “adverse event incidence: headache” value (open-label phase) was 14.0%. The “adverse event incidence: nausea” value (open-label phase) was 15.8%, the “adverse event incidence: sedation” value (open-label phase) was 10.5% and the “participants reporting transient dissociative symptoms” value (open-label phase) was 24.6%. For the same compound, the “participants with adverse events leading to discontinuation of study drug” value (open-label phase) was 2%.
